Test [1] relates to 3T3-L1 adipocytes. Nature of the test: Lipolysis (glycerol in culture medium) of 3T3-L1 adipocytes with or without TNF-α. It is filed as cell-based, Mouse. Particulars: for reduction of the increase in glycerol release associated with TNF-α: then 24 hours TNF-α plus BRL 1 μM. As to the method: 3T3-L1 adipocytes used in this example were obtained from 3T3-L1 fibroblasts as follows. 3T3-L1 fibroblasts (ATCC Deposit NO. CL-173, described in U.S. Pat. No. 4,003,789) were cultured in Dulbecco's Modified Eagle's Medium (DMEM) containing 10% bovine calf serum, and induced to differentiate into adipocytes using standard protocols, as described, e.g., in Kohanski et al. (1996) J. Biol. Chem. 261:12272. Adipocytes were used 10-15 days after the differentiation protocol was initiated.
(§1) Differentiated 3T3-L1 adipocytes cultured in 12 well plates were incubated overnight in DMEM+0.5% BSA in the absence of serum. The following morning, the cells were incubated in the presence or absence of 2 mM or 20 mM sodium salicylate (NaSal) and treated with recombinant murine TNF-α (m TNF-α; Genzyme; Cambridge, Mass.) with or without 17 μM 15-deoxy-^12,14-PGJ2 (“PGJ2”; Cayman Chemical; Ann Arbor, Mich.) or 10 μM BRL 49653 (“BRL”; Smith Kine Beecham (Hamish Ross) (King of Prussia, Pa.)) for 24 hours. The glycerol content in the culture medium was determined using a colorimetric assay (GPO-Trinder, Sigma, St Louis, […].). Protein content was determined using the BCA (bicinchonic acid) protein assay (Pierce, Rockford, Ill.). The results are indicated as nmol glycerol per mg protein.
Accordingly, 3T3-L1 adipocytes were treated with BRL at 10 μM, 1 μM or 1 nM and TNF-α as described above, and the amount of glycerol was determined after 24 hours.
3T3-L1 adipocytes were treated with TNF-α (2 or 10 ng/ml), TNF-α plus BRL at 10 μM, TNF-α plus PGJ2 at 15 μM, or BRL or PGJ2 alone for 5 days. The media was replaced everyday and collected on day 5 to measure accumulation of glycerol.
[…] The glycerol content in the culture medium was determined as described above.
3T3-L1 adipocytes prepared as described in Example 1 were preincubated with various amounts (0-50 μM) of the p38 kinase inhibitor SB203580 and then treated with 10 ng/ml TNF-α for 24 hours and the amount of glycerol in the culture medium determined as described above. […]

For test [2], the system named is 3T3-L1 adipocytes. Put plainly: TNF-α induced FFA release from 3T3-L1 adipocytes (NEFA-C colorimetric kit). In kind it is cell-based, Mouse. Conditions: 24 hours. As to the method:
as §1
In this example, cells were treated for 24 hours as described above, and FFA levels in the culture medium were determined using a colorimetric kit (NEFA-C, WAKO Pure Chemicals, Osaka, Japan).

The test system of test [3] is ERK1/2. Nature of the test: ERK 1/2 kinase assay (MBP substrate) on extracts of treated 3T3-L1 adipocytes. It is filed as cell-based, Mouse. As to the method:
In this example, 3T3-L1 cells were treated as described in Example 2, and cell extracts were used in an ERK 1/2 kinase assay, using MBP (myelin basic protein) as a substrate. The assay used is described in Boulton et al. (1991) Cell Reg. 2: 357.
(§2) 3T3-L1 adipocytes prepared as described in Example 1 were pretreated for 3 hours with or without 20 mM NaSal or 100 μM PD98059 and then treated for 15 minutes with or without 10 ng/ml mTNF-α and with or without 10 μM BRL. Cell extracts were then prepared and used in ERK 1/2 kinase and JNK-1 kinase assays, as described above.
(§3) 3T3-L1 cells were pretreated for 3 days with 17 μM of PGJ2 and then for 15 minutes with 10 ng/ml TNF-α. The amount of phosphorylated (thus activated) JNK-1, ERK1/2, and p38 was determined by Western blot using an antibody specifically recognizing phosphorylated forms of the proteins. As a control, the total amount of JNK-1, ERK1/2 and p38 protein was determined by Western blot using an antibody recognizing the phosphorylated and non phosphorylated forms of the protein. The activity of ERK1/2 and JNK kinases was also determined in a kinase assay using MBP and a portion of c-jun, respectively, as substrate.

Test [4] deals with JNK-1. Put plainly: JNK-1 kinase assay (c-jun substrate) on extracts of treated 3T3-L1 adipocytes. In kind it is cell-based, Mouse. Particulars: 3 hours pretreatment with 20 mM NaSal or 100 μM PD98059, then 15 minutes 10 ng/ml TNF-α. As to the method: 3T3-L1 adipocytes were pretreated for 3 hours with or without 20 mM NaSal, with or without 100 μM MAP kinase kinase (MEK) inhibitor PD98059 (Biomol; Cat. No. EI-360) and then for 15 minutes with 10 ng/ml mTNF-α. JNK-1 kinase assays were then performed with extracts of each of these cell cultures on an N-terminal portion of c-jun, as described in Derjarde et al. (1994) Cell 76: 1025.
as §2, §3

In test [5] the test system is JNK. Particulars: FS4 fibroblasts; Schwenger et al. 1997; cited from earlier work.
Test [6] concerns p42/1p44 MAP kinases. Conditions: FS4 fibroblasts; Schwenger et al. 1996; cited from earlier work.
For test [7], the system named is human adipocytes. Nature of the test: TNF-α induced lipolysis in primary cultures of human adipocytes. Conditions: PD98059 72 hours pretreatment, then 24 hours 100 ng/ml human TNF-α. In kind it is cell-based. As to the method:
Similar results were also obtained using primary cultures of human adipocytes. Primary cultures of human adipocytes, obtained from Zen-Bio were pretreated for 72 hours with PD98059 and then for 24 hours with 100 ng/ml of human TNF-α.

Where [8] appears, read: PD98059, pretreatment for 3 hours.

Entries after “also recorded” stand apart in the source; their conditions may differ.

For `CN(CCOc1ccc(CC2SC(=O)NC2=O)cc1)c1ccccn1` (stereo not shown) [BRL, rosiglitazone], the “reduction of the increase in glycerol release associated with TNF-α” value in test [1] (24 hour pretreatment with TNF-α 2 ng/ml) was “about 65%”; in test [1] (24 hour pretreatment with TNF-α 10 ng/ml) it was “about 50%”. In test [1] (72 hour pretreatment with BRL, no TNF-α), the “inhibition of basal lipolysis” value is reported as “approximately 30%”. Also, in test [1] (5 days, BRL 10 μM or PGJ2 15 μM, TNF-α 2 or 10 ng/ml, last 24 hours), the “blocked share of the increase in glycerol release due to TNF-α” value is “about 100%”. Also, in test [1] (BRL, Example 6 (72 hour pretreatment context)), the “inhibition of TNF-α induced lipolysis” value is given as more than 90%. The “earliest time point at which the effect of TNF-α on glycerol release began to reverse” value in test [1] (after addition of BRL to TNF-α pretreated cells) is 6 h. The “effect on FFA release” value in test [2] (BRL alone, no TNF-α) is given as “no effect”. Also, the “reduction of TNF-α induced FFA release” value in test [2] (BRL, 10 ng/ml TNF-α) is “about 90%”. The “reduction in activation of ERK, factor” value in test [3] (72 hour pretreatment with 5 μM BRL, then TNF-α 10 ng/ml 15 minutes in the presence of BRL) is reported as “about 2.5 factor”.
With `O=C([O-])c1ccccc1O.[Na+]` [NaSal, sodium salicylate], the “ability of TNF-α to increase lipolysis” value in test [1] (2 mM NaSal) is “partially reduced”; in test [1] (20 mM NaSal) it was “completely blocked”. Further, the “inhibition of glycerol production, factor” value in test [1] (2 mM NaSal, induced by 10 ng/ml TNF-α, 24 hours) is approximately 2 factor; in test [1] (induced by 2 ng/ml TNF-α, NaSal 2 or 20 mM, 24 hours), 3-4 factor. For the same molecule, the “inhibition of TNF-α induced lipolysis” value in test [1] (2 or 20 mM NaSal, TNF-α 2 ng/ml (Panel A) or 20 ng/ml (Panel B), 24 hours) is “significantly inhibited”. Also, the “TNF-α induced JNK-1 activation (kinase activity)” value in test [4] was “significantly reduced; also recorded: decreases”. Further, in test [3] (20 mM NaSal 3 hours, then 15 minutes 10 ng/ml TNF-α), the “inhibition of ERK1/2 activation” value was “about two”. The “inhibition of TNF-induced activation of JNK” value in test [5] was “capable of inhibiting”. The “inhibition of TNF-induced activation of p42/1p44 MAP kinases” value in test [6] is listed as “capable of inhibiting”.
On to `COc1cccc(-c2cc(=O)c3ccccc3o2)c1N` [PD98059], for which, in test [1] (100 μM PD98059, 24 hours pretreatment, then TNF-α 24 hours), the “decrease of TNF-α induced lipolysis, factor” value was “less than 2 factor”. In test [1] (setting [8]), the “reduction of TNF-α induced lipolysis” value was “about 76%” and the “reduction of TNF-α induced lipolysis, factor” value is given as “about 3 factor”. For the same molecule, in test [3] (100 μM PD98059 3 hours, then 15 minutes 10 ng/ml TNF-α), the “increase of MBP phosphorylation in the presence of TNF-α and inhibitor, factor” value was “less than two”. Moreover, the “inhibition of MAP kinase activation” value in test [3] (100 μM PD98059 (Example 6, FIG. 6)) was “at least 90%”. The “TNF-α induced ERK1/2 activation (kinase activity)” value in test [3] (3 hours pretreatment with 20 mM NaSal or 100 μM PD98059, then 15 minutes 10 ng/ml TNF-α) is on record as “inhibited”. In addition, the “TNF-α induced lipolysis in human cells” value in test [7] is “reduced”.

The values above are taken from patent US6897019B1, “Methods for treating and preventing insulin resistance and related disorders” (priority 1998, dated 2005).
